Among the data in US20120207763A1, “PYRROLOPYRIMIDINE COMPOUNDS AND THEIR USES” (ASTEX THERAPEUTICS LIMITED, priority 2006, published 2012) are IC50 values, retold here.

Like-named read-outs stand apart in the source and are kept apart here.

Format in all cases: biochemical
Assay [1] concerns the target CDK4/Cyclin-D1 kinase complex (Homo sapiens, UniProt P11802). Nature of the assay: CDK4 ELISA based assay, Rb Ser780 phosphorylation. From the text: The compounds that inhibit the CDK4 kinase activity would inhibit the signal output of the assay.
Assay [2] has as its target CDK2/Cyclin-A kinase complex (Homo sapiens, UniProt P24941). Nature of the assay: CDK2 IMAP fluorescence polarization assay. The method in brief:
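Fluorescence polarization (IMAP) using purified active CDK2/Cyclin-A complex with a TAMRA-tagged Histone H1-derived peptide substrate; phosphorylated peptide bound by a metal-containing reagent raises polarization. Inhibition read as reduced fluorescence polarization signal.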
On the technique in general: Polarisation of emitted light reports the rotation of a fluorescent probe.

The target in a further assay is CDK4 (Homo sapiens, UniProt P11802). Nature of the assay: CDK4 HTRF assay. The conditions noted are these: Table E; read-out: CDK4 HTRF/IC50 [umol l − 1]. For orientation: Time-resolved FRET reads energy transfer from a long-lived donor to a nearby acceptor.
In another assay the target is hCDK1/B (Homo sapiens, UniProt P06493). In words: hCDK1/B assay. The conditions noted are these: Table E; read-out: hCDK1/B/IC50 [umol l − 1].
Setting [3] is: Table E, read-out: CDK4 ELISA assay IC50 [umol l−].
Setting [4] is: Table E, read-out: CDK2cyA IMAP/IC50 [umol l − 1].

Sequence of CDK4/Cyclin-D1 kinase complex (P11802 whole entry): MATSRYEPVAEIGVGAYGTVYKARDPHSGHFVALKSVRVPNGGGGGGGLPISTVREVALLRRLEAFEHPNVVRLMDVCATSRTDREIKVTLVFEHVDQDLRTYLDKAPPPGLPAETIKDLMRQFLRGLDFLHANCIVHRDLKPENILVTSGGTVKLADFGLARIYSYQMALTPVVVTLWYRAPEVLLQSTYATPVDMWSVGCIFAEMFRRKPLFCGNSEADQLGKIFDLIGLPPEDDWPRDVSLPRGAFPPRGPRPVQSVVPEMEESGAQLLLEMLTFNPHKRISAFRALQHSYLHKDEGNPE
Sequence of CDK4/Cyclin-D1 kinase complex (P24385 whole entry partner): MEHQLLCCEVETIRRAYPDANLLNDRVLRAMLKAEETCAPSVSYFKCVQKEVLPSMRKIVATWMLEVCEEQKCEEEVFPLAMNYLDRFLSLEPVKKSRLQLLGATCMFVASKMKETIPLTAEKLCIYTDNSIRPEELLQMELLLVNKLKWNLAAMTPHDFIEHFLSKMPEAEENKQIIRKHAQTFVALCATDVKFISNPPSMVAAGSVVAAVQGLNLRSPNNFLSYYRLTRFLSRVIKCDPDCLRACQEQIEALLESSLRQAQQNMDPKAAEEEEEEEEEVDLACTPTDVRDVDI
Sequence of CDK4 (P11802 whole entry): as the sequence (P11802 whole entry) above
Sequence of CDK4 (P24385 whole entry partner): as the sequence (P24385 whole entry partner) above
Sequence of hCDK1/B (P06493 whole entry): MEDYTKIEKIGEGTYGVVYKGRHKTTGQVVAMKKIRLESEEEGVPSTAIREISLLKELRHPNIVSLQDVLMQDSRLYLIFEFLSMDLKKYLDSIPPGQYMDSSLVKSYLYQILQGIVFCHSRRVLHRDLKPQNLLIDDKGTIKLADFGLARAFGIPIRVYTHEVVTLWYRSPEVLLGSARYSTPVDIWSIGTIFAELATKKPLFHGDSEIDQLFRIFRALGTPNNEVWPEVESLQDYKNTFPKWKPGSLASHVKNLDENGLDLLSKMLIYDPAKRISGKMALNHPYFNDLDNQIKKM
Sequence of hCDK1/B (P14635 whole entry partner): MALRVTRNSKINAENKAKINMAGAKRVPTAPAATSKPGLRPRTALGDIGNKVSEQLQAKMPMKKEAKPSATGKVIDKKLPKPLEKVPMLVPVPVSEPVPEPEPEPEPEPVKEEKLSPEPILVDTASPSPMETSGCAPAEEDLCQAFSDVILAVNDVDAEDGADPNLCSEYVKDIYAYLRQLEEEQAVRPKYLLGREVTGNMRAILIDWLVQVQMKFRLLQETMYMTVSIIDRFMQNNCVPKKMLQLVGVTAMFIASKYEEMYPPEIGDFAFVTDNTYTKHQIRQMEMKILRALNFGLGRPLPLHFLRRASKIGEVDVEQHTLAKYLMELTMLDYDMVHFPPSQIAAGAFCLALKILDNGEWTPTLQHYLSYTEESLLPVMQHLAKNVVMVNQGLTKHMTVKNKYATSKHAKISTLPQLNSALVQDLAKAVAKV

With `CCC(CC)N1C(=O)Cc2cnc(Nc3ccc(N4CCNCC4)cn3)nc21`, the IC50 was > 10 µM in assay [1] (Table C, read-out: CDK4 IC50) and < 10 µM in assay [2] (Table C, read-out: CDK2 IC50).
For the compound `CCC(CC)n1ccc2cnc(Nc3ccc(C4CCCN(C(=O)CC#N)C4)cc3)nc21` (stereo not drawn) [Example 215], in assay [1] (setting [3]), the IC50 is > 10 µM.
On the same count and under the same terms, for `CCC(CC)n1cc(C(=O)OC)c2cnc(Nc3ccc(N4CCN(C(C)=O)CC4)cc3)nc21` [Example 428] the value was > 10 µM.
Take `CCOC(OCC)c1cc2cnc(Nc3ccc(N4CCN(C(C)=O)CC4)cc3)nc2n1C(CC)CC` [Example 360, 1-(4-{4-[6-Diethoxymethyl-7-(1-ethyl-propyl)-7H-pyrrolo[2,3-d]pyrimidin-2-ylamino]-phenyl}-piperazin-1-yl)-ethanone]: the IC50 in assay [1] (setting [3]) and in assay [2] (setting [4]) was > 10 µM in each case.
With `CCC(CC)n1ccc2cnc(Nc3ccc(N4CCN(C(C)=O)CC4)cn3)nc21` [Example 206], the IC50 in assay [1] (setting [3]) and in assay [2] (setting [4]) was > 10 µM each time.
As for `CCC(CC)N1C(=O)C(C)(C)c2cnc(Nc3ccc(N4CCN(C(C)=O)CC4)cn3)nc21`, the IC50 in assay [1] (Table C, read-out: CDK4 IC50) was > 10 µM; in assay [2] (Table C, read-out: CDK2 IC50), > 10 µM.
Turning to `CCC(CC)n1c(C)cc2cnc(Nc3ccc(N4CCNCC4)cc3)nc21` [Example 329, [7-(1-Ethyl-propyl)-6-methyl-7H-pyrrolo[2,3-d]pyrimidin-2-yl]-(4-piperazin-1-yl-phenyl)-amine], the IC50 in assay [1] (setting [3]) is > 10 µM; in assay [2] (setting [4]), < 1 µM.
For `Cc1cn(C2CCCCC2)c2nc(Nc3ccc(N4CCN(C)CC4)cc3)ncc12` [Example 269], in that order: < 10 µM and > 10 µM.
Take `CCC(CC)N1C(=O)C(C)(C)c2cnc(Nc3ccc(N4CCN(C)CC4)cc3)nc21` [drawing 155]: the IC50 in assay [1] (Table C, read-out: CDK4 IC50) is < 10 µM; in assay [2] (Table C, read-out: CDK2 IC50), < 10 µM.
In the case of `CCC(CC)N1C(=O)C(C)(C)c2cnc(Nc3ccc(N4CCN(C(=O)OC(C)(C)C)CC4)cc3)nc21`, the IC50 in assay [1] (Table C, read-out: CDK4 IC50) is > 10 µM.
As to `CCC(CC)n1cc(C)c2cnc(Nc3ccc(C(=O)NC4CCCC4)cc3)nc21` [Example 319], in assay [1] (setting [3]), the IC50 is > 10 µM.
As to `CC1(C)C(=O)N(C2CCCC2)c2nc(Nc3ccc(N4CCNCC4)cn3)ncc21`, the IC50 in assay [1] (Table C, read-out: CDK4 IC50) was < 10 µM.
Regarding `CCC(CC)n1cc(C)c2cnc(Nc3ccc(N4CCN(C(C)=O)CC4)cc3)nc21` [Example 263, 1-(4-{4-[7-(1-Ethyl-propyl)-5-methyl-7H-pyrrolo[2,3-d]pyrimidin-2-ylamino]-phenyl}-piperazin-1-yl)-ethanone], the IC50 in assay [1] (setting [3]) and in assay [2] (setting [4]) was > 10 µM each time.
Regarding `CCC(CC)n1ccc2cnc(Nc3ccc(N4CCN(C)CC4)cn3)nc21` [Example 207], the IC50 was < 10 µM in assay [1] (setting [3]) and > 10 µM in assay [2] (setting [4]).
For `CCC(CC)n1ccc2cnc(Nc3ccc(N4CCN(C)CC4)c(F)c3)nc21` [Example 208], in that order: < 10 µM and < 10 µM.
Consider `CCC(CC)N1C(=O)C(C)(C)c2cnc(Nc3ccc(N4CCNCC4)cc3)nc21` [drawing 162], for which the IC50 in assay [1] (Table C, read-out: CDK4 IC50) is < 10 µM.
Turning to `Cc1cn(-c2c[nH]cn2)c2nc(Nc3ccc(N4CCNCC4)cn3)ncc12` [Example 324], the IC50 was < 1 µM on CDK4, > 10 µM at hCDK1/B and > 10 µM in assay [2] (setting [4]).
For `CCC(CC)n1ccc2cnc(Nc3ccc(C(=O)NC4CCCC4)cc3)nc21` [Example 217], the IC50 in assay [1] (setting [3]) was > 10 µM.
In the case of `OC[C@@H]1CCC(n2ccc3cnc(Nc4ccc(N5CCNCC5)cc4)nc32)C1` (stereo partly drawn) [Example 250], the IC50 (on CDK4; at hCDK1/B; in assay [2] (setting [4])) was < 1 µM in each case.
For the compound `CCC(C)n1c(C#N)c(C)c2cnc(Nc3ccc(N4CCC(N(C)C)CC4)cc3)nc21` (stereo not drawn) [Example 396], the IC50 (at CDK4; on hCDK1/B; in assay [2] (setting [4])) was < 1 µM each time.
Regarding `Cc1cn(C2CCCC2)c2nc(Nc3nccc4ccccc34)ncc12` [Example 303], the IC50 (at CDK4; at hCDK1/B; in assay [2] (setting [4])) was > 10 µM in each case.
On to `CCC(CC)n1ccc2cnc(NC3CC3)nc21` [Example 218], for which the IC50 in assay [1] (setting [3]) was > 10 µM.
On to `OC1CCC(n2ccc3cnc(Nc4ccc(N5CCNCC5)cc4)nc32)C1` (stereo not drawn) [Example 247], for which the IC50 (at CDK4; at hCDK1/B; in assay [2] (setting [4])) was < 1 µM each time.
As to `CCC(CC)n1cc(C(=O)OC)c2cnc(Nc3ccc(N4CCNCC4)cc3)nc21` [Example 429], in assay [1] (setting [3]), the IC50 is > 10 µM.
For `CCC(CC)n1c(C(=O)Nc2cc[nH]n2)cc2cnc(Nc3ccc(N4CCNCC4)cc3)nc21` [Example 356], the values for the IC50 (at CDK4; at hCDK1/B; in assay [2] (setting [4])) were < 1 µM, < 10 µM and < 10 µM, respectively.
Regarding `Cc1cn(C2CCCC2)c2nc(Nc3ccc4[nH]c(=O)[nH]c4c3)ncc12` [Example 279], the IC50 is < 1 µM at CDK4, < 10 µM at hCDK1/B and < 10 µM in assay [2] (setting [4]).
Regarding `Cc1nnc(-c2c(C)c3cnc(Nc4ccc(N5CCNCC5)cn4)nc3n2C2CCCC2)o1` [Example 386, [7-Cyclopentyl-5-methyl-6-(5-methyl-[1,3,4]oxadiazol-2-yl)-7H-pyrrolo[2,3d]pyrimidin-2-yl]-(5-piperazin-1-yl-pyridin-2-yl)-amine], the IC50 on CDK4 was < 1 µM; at hCDK1/B, < 10 µM; in assay [2] (setting [4]), < 10 µM.
Regarding `CCC(CC)n1c(C(=O)Nc2cccc(F)c2)cc2cnc(Nc3ccc(N4CCNCC4)cc3)nc21` [Example 357], the IC50 at CDK4 was < 1 µM; on hCDK1/B, < 10 µM; in assay [2] (setting [4]), < 10 µM.
Take `Cc1c(-c2cnco2)n(C2CCCC2)c2nc(Nc3ccc(CN4CCOCC4)cc3)ncc12` [Example 401]: the IC50 (on CDK4; at hCDK1/B; in assay [2] (setting [4])) was < 1 µM in each case.
`CC(=O)N1CCN(c2ccc(Nc3ncc4ccn(C5CCC(C)C5)c4n3)cc2)CC1` (stereo not drawn) [Example 238]: the IC50 on CDK4 was < 1 µM; on hCDK1/B, < 10 µM; in assay [2] (setting [4]), < 10 µM.
Turning to `Cc1cn(C2CCC(O)C2)c2nc(Nc3ccc(CN4CCNCC4)cc3)ncc12` (stereo not drawn) [Example 316], the IC50 on CDK4 was < 1 µM; at hCDK1/B, < 10 µM; in assay [2] (setting [4]) it was < 1 µM.
In the case of `CCC(CC)n1c(C(=O)N(C)C)cc2cnc(Nc3ccc(CN4CCNCC4)cc3)nc21` [Example 342], the results for the IC50 (on CDK4; on hCDK1/B; in assay [2] (setting [4])) were < 1 µM, < 10 µM and < 10 µM, respectively.
With `CCC(CC)n1c(C(=O)Nc2ccc(OC)cc2)cc2cnc(Nc3ccc(N4CCNCC4)cc3)nc21` [Example 347], the figures for the IC50 (at CDK4; on hCDK1/B; in assay [2] (setting [4])) were < 1 µM, > 10 µM and > 10 µM, respectively.
On to `Cc1cn(C2CCCC2)c2nc(Nc3ccccc3)ncc12` [Example 277], for which the IC50 (at CDK4; at hCDK1/B; in assay [2] (setting [4])) was > 10 µM throughout.
In the case of `CCC(CC)n1c(C(=O)Nc2ccncc2)cc2cnc(Nc3ccc(N4CCNCC4)cc3)nc21` [Example 353], the IC50 at CDK4 was < 1 µM; at hCDK1/B it was > 15 µM; in assay [2] (setting [4]) it was > 15 µM.
`CCC(CC)n1c(C(=O)N(C)C)cc2cnc(Nc3ccc(CN4CCN(C(=O)OC(C)(C)C)CC4)cc3)nc21` [Example 465]: the IC50 at CDK4 was < 1 µM; on hCDK1/B, < 10 µM; in assay [2] (setting [4]), < 10 µM.
As to `Cc1cn(C2CCCC2)c2nc(Nc3ccc(CN4CCNC(=O)C4)cc3)ncc12` [Example 290], the IC50 was < 1 µM on CDK4, < 10 µM at hCDK1/B and < 10 µM in assay [2] (setting [4]).
On to `Cc1cn(C2CCCC2)c2nc(Nc3ccc(CN4CCNCC4)cc3)ncc12` [Example 314], for which the IC50 was < 1 µM on CDK4, < 10 µM at hCDK1/B and < 10 µM in assay [2] (setting [4]).
As for `Cc1c(C#N)n(C2CCCC2)c2nc(Nc3ccc(N4CCC(N(C)C)CC4)cn3)ncc12` [Example 394], the IC50 on CDK4 is < 1 µM; at hCDK1/B, > 15 µM; in assay [2] (setting [4]), > 10 µM.
Take `CCC(CC)N1C(=O)Cc2cnc(Nc3ccc(N4CCNCC4)cc3)nc21`: in assay [1] (Table C, read-out: CDK4 IC50), the IC50 was < 10 µM.
For `CCC(CC)n1c(COC)cc2cnc(Nc3ccc(C(=O)NC4CCCC4)cc3)nc21` [Example 380], the IC50 in assay [1] (setting [3]) was > 10 µM.
On to `Cc1noc(-c2c(C)c3cnc(Nc4ccc(N5CCNCC5)cn4)nc3n2C2CCCC2)n1` [Example 407], for which the IC50 at CDK4 is < 1 µM; at hCDK1/B, < 10 µM; in assay [2] (setting [4]), < 10 µM.
On to `Cc1cn(C2CCCC2)c2nc(Nc3ccc(CCN4CCOCC4)cc3)ncc12` [Example 291], for which the values for the IC50 (at CDK4; on hCDK1/B; in assay [2] (setting [4])) were < 1 µM, < 10 µM and > 10 µM, respectively.
For `CCC(CC)n1c(C(=O)NC)cc2cnc(Nc3ccc(N4CCNCC4)cc3)nc21` [Example 346], in that order: < 1 µM, < 10 µM and < 10 µM.
Consider `CCC(CC)n1ccc2cnc(NC3CCCC3)nc21` [Example 210], for which the IC50 in assay [1] (setting [3]) was > 10 µM.
Regarding `Cc1c(C(N)=O)n(C2CCCC2)c2nc(Nc3ccc(N4CCNCC4)cn3)ncc12` [Example 391], the IC50 at CDK4 was < 1 µM; on hCDK1/B, > 10 µM; in assay [2] (setting [4]), > 10 µM.
For `Cc1cn(C2CCCC2)c2nc(Nc3ccc(N4CCNCC4)cc3)ncc12` [drawing 150], the IC50 in assay [1] (Table C, read-out: CDK4 IC50) is < 10 µM.
With `Cc1n[nH]c(-c2c(C)c3cnc(Nc4ccc(N5CCNCC5)cn4)nc3n2C2CCCC2)n1` [Example 406], the figures for the IC50 (at CDK4; on hCDK1/B; in assay [2] (setting [4])) were < 1 µM, > 10 µM and > 10 µM, respectively.
